Measurements published in ChEMBL document CHEMBL2073980, “Molecular cloning and characterization of the murine bile salt export pump” (Gene, 2000).

Tests used:
Type in all cases: functional, cell membranes, Membrane vesicle
Set-up in all cases: scale not given: the % may be the effect or the level left
[1] = target: T1, Bsep (bile salt export pump) (Mus musculus, UniProt Q9QY30); experiment: TP_TRANSPORTER: inhibition of Taurocholate uptake (Taurochorate: 5 uM, TCDC: 50 uM) in membrane vesicles isolated from Bsep-expressing Balb-3T3 cells; conditions: probe taurocholate, read-out: Activity
T1 sequence (Q9QY30 whole entry): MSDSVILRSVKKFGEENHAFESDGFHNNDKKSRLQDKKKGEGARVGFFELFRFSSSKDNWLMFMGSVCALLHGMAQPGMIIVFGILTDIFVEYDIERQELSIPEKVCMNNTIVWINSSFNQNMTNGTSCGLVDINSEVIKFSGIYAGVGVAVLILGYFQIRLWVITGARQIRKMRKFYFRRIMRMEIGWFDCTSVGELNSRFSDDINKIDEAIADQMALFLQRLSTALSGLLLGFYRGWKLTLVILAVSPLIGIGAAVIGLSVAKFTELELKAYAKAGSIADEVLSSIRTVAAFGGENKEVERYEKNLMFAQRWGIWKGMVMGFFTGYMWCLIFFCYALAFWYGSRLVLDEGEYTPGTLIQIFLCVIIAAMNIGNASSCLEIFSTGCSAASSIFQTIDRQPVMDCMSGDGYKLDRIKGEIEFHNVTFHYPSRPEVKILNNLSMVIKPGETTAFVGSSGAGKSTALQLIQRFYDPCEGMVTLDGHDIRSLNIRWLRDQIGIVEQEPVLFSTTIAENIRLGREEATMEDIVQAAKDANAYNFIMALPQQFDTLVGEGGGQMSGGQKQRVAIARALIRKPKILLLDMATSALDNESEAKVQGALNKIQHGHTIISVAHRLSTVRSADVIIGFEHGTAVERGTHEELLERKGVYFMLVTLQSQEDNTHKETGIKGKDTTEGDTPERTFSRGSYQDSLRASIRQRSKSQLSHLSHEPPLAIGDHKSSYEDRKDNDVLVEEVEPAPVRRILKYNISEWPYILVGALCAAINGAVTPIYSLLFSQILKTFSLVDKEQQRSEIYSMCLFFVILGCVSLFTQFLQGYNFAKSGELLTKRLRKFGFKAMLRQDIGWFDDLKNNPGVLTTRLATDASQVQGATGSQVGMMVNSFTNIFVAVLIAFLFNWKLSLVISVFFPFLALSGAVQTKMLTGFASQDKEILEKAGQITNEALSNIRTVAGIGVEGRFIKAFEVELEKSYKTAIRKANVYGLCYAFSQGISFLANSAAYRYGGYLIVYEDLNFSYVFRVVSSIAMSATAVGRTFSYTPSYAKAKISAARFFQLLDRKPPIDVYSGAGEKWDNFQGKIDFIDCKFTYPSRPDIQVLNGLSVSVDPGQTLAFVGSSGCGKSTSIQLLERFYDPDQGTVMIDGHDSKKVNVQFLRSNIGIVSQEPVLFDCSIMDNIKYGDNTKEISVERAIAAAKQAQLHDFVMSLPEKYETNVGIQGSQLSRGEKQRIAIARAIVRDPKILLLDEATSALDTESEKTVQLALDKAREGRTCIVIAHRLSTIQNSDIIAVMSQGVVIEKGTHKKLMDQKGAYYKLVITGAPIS

Bile salt export pump = target: T2, Bile salt export pump (Mus musculus, UniProt Q9QY30); experiment: TP_TRANSPORTER: inhibition of Taurocholate uptake (Taurochorate: 5 uM, UDCA: 50 uM) in membrane vesicles isolated from Bsep-expressing Balb-3T3 cells; conditions: balb/3t3, 50 µM
T2 sequence (Q9QY30 whole entry): T1 sequence (Q9QY30 whole entry)

[2] = target: T1, Bsep (bile salt export pump); experiment: TP_TRANSPORTER: inhibition of Taurocholate uptake (Taurochorate: 5 uM, CDCA: 50 uM) in membrane vesicles isolated from Bsep-expressing Balb-3T3 cells; conditions: probe taurocholate, read-out: Activity
[3] = target: T1, Bsep (bile salt export pump); experiment: TP_TRANSPORTER: inhibition of Taurocholate uptake (Taurochorate: 5 uM, TDCA: 50 uM) in membrane vesicles isolated from Bsep-expressing Balb-3T3 cells; conditions: probe taurocholate, read-out: Activity

Q: For `C[C@H](CCC(=O)NCCS(=O)(=O)O)[C@H]1CC[C@H]2[C@@H]3[C@H](O)C[C@@H]4C[C@H](O)CC[C@]4(C)[C@H]3CC[C@]12C` [TAUROCHENODEOXYCHOLATE], which activity at 50 µM [1] is on record?
A: Its activity at 50 µM is 25%.

Q: With `C[C@H](CCC(=O)O)[C@H]1CC[C@H]2[C@@H]3[C@@H](O)C[C@@H]4C[C@H](O)CC[C@]4(C)[C@H]3CC[C@]12C` [URSODIOL] as the compound, how does the Activity (Bile salt export pump) read?
A: The Activity was 51%.

Q: Which activity at 50 µM [2] does the source give for `C[C@H](CCC(=O)O)[C@H]1CC[C@H]2[C@@H]3[C@H](O)C[C@@H]4C[C@H](O)CC[C@]4(C)[C@H]3CC[C@]12C` [CHENODIOL] here?
A: Its activity at 50 µM is 11%.

Q: With `C[C@H](CCC(=O)NCCS(=O)(=O)O)[C@H]1CC[C@H]2[C@@H]3CC[C@@H]4C[C@H](O)CC[C@]4(C)[C@H]3C[C@H](O)[C@]12C` [TAURODEOXYCHOLIC ACID] as the compound, how does the activity at 50 µM [3] read?
A: The activity at 50 µM was 5%.
